Test results published in paper PMC11219871, “Epigenetic-based differentiation therapy for Acute Myeloid Leukemia” (Nature Communications, 2024).
Several values for one entry are separate records, joined by “and”; a condition that tells them apart may be missing. Identical values can stand only once.

Legend:
[1] = system: MV4-11 xenograft in BALB/cA Rag2-/-γc-/- mice; experiment: Subcutaneous xenograft model (tumor volume, CD11b q-PCR, H3Ac, body weight); assay type: in vivo, mouse; conditions: for Tumor volume: MV4-11 subcutaneous xenograft, in mm³; for Tumor volume / body weight of mice: individual mice; for body weight of mice: subcutaneous MV4-11 AML mouse model
Experimental: (§1) The subcutaneous xenograft models of ML-2 and MV4-11 derived cells, 5 × 10^6 and 10 × 10^6 cells, respectively, diluted in 100 µL of saline solution were subcutaneously inoculated in the back left flank of female BALB/cA Rag2^−/−γc^−/− mice. When tumors became palpable, the mice were randomized into three groups: vehicle, CM-444 and CM-1758, (eight animals/group). Treatment with 10 mg/kg of CM-444 or CM-1758 i.p. was started 4 days after injection when all mice presented subcutaneous tumors and was administered for 5 consecutive days followed by 2 resting days over 3 weeks for the ML-2 model or daily for 2 weeks for the MV4-11 model. The control group received only 80% saline solution, 10% DMSO […] 10% Tween 20 (diluents of CM-444 and CM-1758). Tumor size was analyzed every 2–3 days using the following method: […], where D and d corresponded to the longest and shortest diameter, respectively. The maximal tumor size/burden permitted by the Animal Care and Ethics Committee of the University of Navarra is 2000 mm^3. This maximal tumor size/burden was not exceeded in any case. ML-2 and MV4-11 tumors were explanted for differentiation and global histone acetylation analysis. Histones were extracted, and a western blot of H3Ac was performed as described above. For the differentiation study, RNA was extracted, and q-PCR of CD11b was performed as described above (CD11b sequence primer can be found in Supplementary Table 10).

[2] = system: ML-2 xenograft in BALB/cA Rag2-/-γc-/- mice; experiment: as above; assay type: in vivo, mouse; conditions: for Tumor volume: ML-2 subcutaneous xenograft, individual mice (Fig 3B), in mm³; for body weight of mice: subcutaneous ML-2 AML mouse model, individual mice
Experimental: as §1

HL-60 = experiment: CUT&RUN of BRD4, H3K27Ac and H3K9Ac; assay type: cell-based, human; conditions: HL-60, 12 h
Experimental: CUT&RUN was performed with the kit CUTANA ChIC/CUT&RUN (Epicypher, 14-1048) following the manufacturer’s instructions. Briefly, 0.5 million of HL-60 cells were harvested and resuspended in 100ul wash buffer [20 mM HEPES pH 7.5, 150 mM NaCl, 0.5 mM Spermidine, supplemented with Protease Inhibitor EDTA-Free tablet (Roche 11836170001)]. Activated Concanavalin A was incubated with cells at room temperature for 10 min to let the cells bind to the beads. For each target protein factor, 0.5 μg of BRD4 CUTANA CUT&RUN antibody (Cat No 13-2003, Epicypher), Acetyl-Histone H3 (Lys 9) (C5B11) rabbit monoclonal antibody diluted 1:50 (Cat No 9649 T, Cell Signaling) or Acetyl-Histone H3 (Lys 27) (D5E4) XP rabbit monoclonal antibody diluted 1:100 (Cat No 8173T, Cell Signaling) was added to each sample and incubated in the antibody buffer (wash buffer +0.01% Digitonin and 2 mM EDTA) overnight at 4 °C. Isotype control IgG was used as a negative control. The beads were then washed twice with digitonin buffer [wash buffer +0.01% Digitonin] and 2.5 μL pAG-MNase was added to each sample. After ten minutes of incubation at room temperature, excessive pAG-MNase was washed out by a two-time digitonin buffer wash. Then targeted chromatin was digested and released from cells by 2 h of incubation with the presence of 2 mM CaCl2 at 4 °C. After incubation with stop buffer [340 mM NaCl, 20 mM EDTA, 4 mM EGTA, 50 μg/mL RNase A, 50 μg/mL Glycogen] for 10 min at 37 °C the supernatant containing CUT&RUN-enriched DNA was purified using the CUTANA DNA Purification kit (Epicypher). Finally, Illumina sequencing libraries were prepared from 6 ng of purified CUT&RUN DNA using NEBNext UltraTM II DNA Library Prep Kit for Illumina, following the manufacturer’s instructions. For BRD4, some modifications were added following the protocol of Nan Liu (Harvard University; 10.17504/protocols.io.wvgfe3w). Libraries were sequenced using NEXTseq500 (Illumina).
The Cut&Run samples were analyzed using the CUT&RUN tools pipeline with default settings and no filtering for 120 bp fragments. Peak calling was performed on deduplicated reads with macs2 version 2.2.6 using the respective IgG samples as control, narrow peak calling and paired-end settings, and a threshold of q = 0.01.
Specifically, 12 chromatin states, based on the combination of 6 histone marks, for 38 AML samples were used[59]. The vast majority of the regions could be entirely annotated to a single chromatin state while some could be entirely annotated to a single chromatin state after the replacement of consecutive chromatin states with similar characteristics with one of them (i.e combination of Transcription Transition / Transcription Elongation / Weak Transcription to Transcription Transition or combination of Heterochromatin; Represesed/ Heterochromatin; Low Signal to Heterochromatin; Repressed etc). The regions that couldn’t be entirely annotated to a single chromatin state or simplified chromatin state were removed. […] We then calculated the percentage of each chromatin state taking into account the width of the regions. As background, we used all the regions of each AML sample and we calculated the percentage of the chromatin states similarly. Finally, we calculated the fold change of each chromatin state as a percentage in the sample to a percentage in the background AML sample.

COc1cc2nc(-c3cc(C)oc3C)cc(NCC3CCN(c4ncc(C(=O)NO)cn4)CC3)c2cc1OC [CM-1758, 2-[4-[[[2-(2,5-dimethyl-3-furyl)-6,7-dimethoxy-4-quinolyl]amino]methyl] -1-piperidyl]pyrimidine-5-carbohydroxamic acid]
CD11b expression in explanted tumors ([1]; MV4-11 s.c., 10 mg/kg i.p.): significant increase in CD11b expression | H3Ac levels in tumors ([1]; MV4-11 s.c., 10 mg/kg i.p.): increase in H3Ac levels | tumor growth ([1]; MV4-11 s.c., 10 mg/kg i.p. daily, 2 weeks): inhibited tumor growth significantly | Tumor volume ([1]; day 0): 0 | Tumor volume ([1]; day 7): 3.017 | Tumor volume ([1]; day 9): 146.917 and 71.6651 and 143.551 and 106.303 and 28.6195 and 85.1833 and 49.7152 and 104.914 and 63.9744 and 234.732 | Tumor volume ([1]; day 12): 419.824 and 122.408 and 229.873 and 238.093 and 102.721 and 299.024 and 103.513 and 178.679 and 140.065 and 433.026 | Tumor volume ([1]; day 14): 415.95 and 158.115 and 375.793 and 401.985 and 154.443 and 348.449 and 102.044 and 262.858 and 231.325 and 547.206 | Relative H3Ac/H3 total levels ([1]; after in vivo treatment, subcutaneous MV4-11 mouse model, western blot, individual tumors): 1.267 and 1.234 and 1.332 and 1.244 and 1.416 and 1.49 | body weight of mice ([1]; day 1, in g (unit assumed)): 23.6 and 18.5 and 22.2 and 22.3 and 23.2 and 21.8 and 24.2 and 20.2 and 19.5 and 21.3 | body weight of mice ([1]; day 5): 21.3 and 16.3 and 21.5 (2×) and 21.2 and 22.1 and 23 and 20 (2×) and 20.2 | body weight of mice ([1]; day 7): 20.5 and 16.4 and 21.3 and 21.6 and 20.8 and 23.9 and 19.5 (2×) and 19.3 and 19.8 | body weight of mice ([1]; day 9, in g (unit assumed)): 21 and 17.1 and 21.6 and 21.1 and 21.7 and 20.2 and 23.4 and 19.3 and 19.8 and 20.4 | body weight of mice ([1]; day 12, in g (unit assumed)): 21.3 and 18 and 22.5 and 21.9 and 22.2 and 21.8 and 23.6 and 19.9 and 20.4 and 21.5 | body weight of mice ([1]; day 14): 21.4 and 17.3 and 21.1 and 21.6 (2×) and 21.8 and 23.6 and 20 and 20.5 and 21 | body weight of mice ([1]; day 16): 22.2 (2×) and 18.1 and 21.8 and 21.5 and 22.3 and 24.4 and 20.3 and 20.9 and 21.7 | CD11b expression, log10 (2-ΔΔCt) ([1]; tumors of the subcutaneous MV4-11 model, q-PCR, individual tumors): 0.854 and 1.2584 and 2.36 and 1.145 and 1.034 | CD11b expression in explanted tumors ([2]; ML-2 s.c., 10 mg/kg i.p.): significant increase in CD11b expression | H3Ac levels in tumors ([2]; ML-2 s.c., 10 mg/kg i.p.): increase in H3Ac levels | tumor growth ([2]; ML-2 s.c., 10 mg/kg i.p., 5 days on/2 off, 3 weeks): inhibited tumor growth significantly | Tumor volume ([2]; day 0): 0 | Tumor volume ([2]; day 8): 47.3386 and 22.9378 and 56.1402 and 38.666 and 38.4941 and 0 and 12.669 and 19.4742 | Tumor volume ([2]; day 11): 71.6377 and 35.2331 and 55.0976 and 24.3685 and 43.9734 and 8.639 and 15.4625 and 6.7915 | Tumor volume ([2]; day 13): 158.593 and 184.271 and 192.133 and 111.517 and 131.043 and 16.1706 and 35.0775 and 32.6327 | Tumor volume ([2]; day 15): 338.357 and 436.616 and 344.697 and 149.062 and 276.144 and 73.6819 and 103.063 and 52.9756 | Tumor volume ([2]; day 18): 450.141 and 971.066 and 667.169 and 309.135 and 557.655 and 200.834 and 266.198 and 84.0917 | Tumor volume ([2]; day 20): 750.162 and 778.307 and 425.752 and 619.516 and 424.823 and 364.169 and 387.08 and 367.037 | Relative H3Ac/H3 total levels ([2]; after in vivo treatment, subcutaneous ML-2 mouse model, western blot, individual tumors): 1.2836 and 1.288 and 1.719 and 8.364 and 1.323 and 1.1332 | body weight of mice ([2]; day 4, in g (unit assumed)): 23.8 and 22.2 and 25.1 and 23.3 and 24.6 and 21 and 23.7 and 24.3 | body weight of mice ([2]; day 6, in g (unit assumed)): 23 and 20.6 and 24.5 and 22.4 and 23.6 and 21.2 and 22.8 and 24.2 | body weight of mice ([2]; day 8): 22.9 (2×) and 20.3 and 23.8 and 22.4 and 21.2 and 22 and 23.5 | body weight of mice ([2]; day 11, in g (unit assumed)): 23 and 22.4 and 24.2 and 23.7 and 23.9 and 21.1 and 23.2 and 25.2 | body weight of mice ([2]; day 13): 23 (2×) and 21.6 and 24.6 and 24 and 23.4 and 22 and 25.4 | body weight of mice ([2]; day 15): 22.8 and 22 and 24.5 and 23.6 (2×) and 20.9 and 22.4 and 24.7 | body weight of mice ([2]; day 18, in g (unit assumed)): 22.9 and 21.9 and 23.9 and 24 and 22.8 and 20.8 and 21.6 and 24.1 | body weight of mice ([2]; day 20): 22.1 and 20.8 (2×) and 23.3 (2×) and 19.4 and 19.9 and 23.7 | CD11b expression from tumors measured by q-PCR ([2]; tumors of the subcutaneous ML-2 model, individual tumors (Fig 3C)): 1.158 log10 (2-ΔΔCt) and 2.588 log10 (2-ΔΔCt) and 4.58 log10 (2-ΔΔCt) and 3.25 log10 (2-ΔΔCt) and 2.2558 log10 (2-ΔΔCt)

Cc1[nH]c2ccccc2c1CCNCc1ccc(/C=C/C(=O)NO)cc1 [Panobinostat, reference compound]
BRD4 CUT&RUN peaks (HL-60): 16030 | H3K9Ac CUT&RUN peaks (HL-60): 32775 | H3K27Ac CUT&RUN peaks (HL-60): 26959
